Data on two molecules can be found in patent US20200281923A1, “USE OF PARP INHIBITOR IN TREATING CHEMOTHERAPY-RESISTANT OVARIAN CANCER OR BREAST CANCER” (JIANGSU HENGRUI MEDICINE CO., LTD., priority 2017, published 2020).

One experiment deals with recurrent ovarian cancer. As to the kind of experiment: Phase I clinical trial of compound A alone in recurrent chemotherapy-resistant ovarian cancer. The class given is in vivo, human. As to conditions: daily dose of 120 mg. An excerpt: Objective response rate (ORR) refers to the proportion of patients whose tumor shrinks to a certain extent and remains for a certain period of time, including cases of CR and PR. The response evaluation criteria in solid tumors (RECIST 1.1 criteria) are employed to assess tumor objective response. The subject must have measurable tumor lesions at baseline. The efficacy assessment criteria are classified into complete response (CR), partial response (PR), stable disease (SD), and progressive disease (PD) according to the RECIST 1.1 criteria.
Disease control rate (DCR) refers to the percentage of confirmed cases of complete response, partial response and stable disease (≥eight weeks) in patients with evaluable efficacy.
In the phase I clinical trial, the dose of compound A was 120 mg/d and above. 23 patients with recurrent ovarian cancer diagnosed by histology or cytology, who had received standard treatment failure, were enrolled. These patients had been subjected to at least second-line systemic chemotherapy during the recurrence and metastasis stage of ovarian cancer. The chemotherapy regimen was a platinum-based chemotherapy regimen. These patients were platinum-based treatment-resistant, or were intolerant to the chemotherapy toxicity during the treatment.
Compound A: the initial dose was 10 mg, 20 mg, 40 mg, 60 mg, 80 mg, 100 mg or 150 mg, administrated orally twice a day; or 120 mg or 160 mg, administrated orally once a day.

In another experiment the test system is advanced prostate cancer. The note with it: advanced prostate cancer patients with DNA repair gene mutations; phase II clinical trial; cited from earlier work.
Setting [1] is: platinum-resistant ovarian cancer without BRCA mutations, 13 cases.
Where [2] appears, read: recurrent platinum-resistant ovarian cancer, 22 evaluable cases out of 23.

Take `O=C(c1cc(Cc2n[nH]c(=O)c3ccccc23)ccc1F)N1CCn2nc(C(F)(F)F)nc2C1` [compound A]: the results for the “disease control rate (DCR)” value in the experiment with recurrent ovarian cancer (setting [1]) and in the experiment on recurrent ovarian cancer (setting [2]) were 84.6% and 81.8%, respectively. Besides, the “objective response rate (ORR)” value in the experiment on recurrent ovarian cancer (setting [1]) came to 15.4%; in the experiment on recurrent ovarian cancer (setting [2]), 18.2%.
As to `O=C(c1cc(Cc2n[nH]c(=O)c3ccccc23)ccc1F)N1CCN(C(=O)C2CC2)CC1` [Olaparib], the response with advanced prostate cancer is listed as 88%.
